Experimental data from US20260176275A1, “VINYLPHOSPHONIC ACID-MODIFIED MRNA CAP ANALOG, METHOD FOR PREPARING SAME, AND USE THEREOF” (Jiangsu Synthgene Biotechnology Co., Ltd., priority 2022, published 2026).

Experiments:
T7 RNA polymerase [1] = molecular target: T1, T7 RNA polymerase (Escherichia phage T7, UniProt P00573); assay: mRNA in-vitro transcription yield with cap analog (T7 IVT, Nanodrop One quantification); format: biochemical; conditions: mRNA from 20 μL IVT system, 1 μl 100 mM cap analog, 1 μg template, 37° C. 2 h
T1 sequence (P00573 whole entry): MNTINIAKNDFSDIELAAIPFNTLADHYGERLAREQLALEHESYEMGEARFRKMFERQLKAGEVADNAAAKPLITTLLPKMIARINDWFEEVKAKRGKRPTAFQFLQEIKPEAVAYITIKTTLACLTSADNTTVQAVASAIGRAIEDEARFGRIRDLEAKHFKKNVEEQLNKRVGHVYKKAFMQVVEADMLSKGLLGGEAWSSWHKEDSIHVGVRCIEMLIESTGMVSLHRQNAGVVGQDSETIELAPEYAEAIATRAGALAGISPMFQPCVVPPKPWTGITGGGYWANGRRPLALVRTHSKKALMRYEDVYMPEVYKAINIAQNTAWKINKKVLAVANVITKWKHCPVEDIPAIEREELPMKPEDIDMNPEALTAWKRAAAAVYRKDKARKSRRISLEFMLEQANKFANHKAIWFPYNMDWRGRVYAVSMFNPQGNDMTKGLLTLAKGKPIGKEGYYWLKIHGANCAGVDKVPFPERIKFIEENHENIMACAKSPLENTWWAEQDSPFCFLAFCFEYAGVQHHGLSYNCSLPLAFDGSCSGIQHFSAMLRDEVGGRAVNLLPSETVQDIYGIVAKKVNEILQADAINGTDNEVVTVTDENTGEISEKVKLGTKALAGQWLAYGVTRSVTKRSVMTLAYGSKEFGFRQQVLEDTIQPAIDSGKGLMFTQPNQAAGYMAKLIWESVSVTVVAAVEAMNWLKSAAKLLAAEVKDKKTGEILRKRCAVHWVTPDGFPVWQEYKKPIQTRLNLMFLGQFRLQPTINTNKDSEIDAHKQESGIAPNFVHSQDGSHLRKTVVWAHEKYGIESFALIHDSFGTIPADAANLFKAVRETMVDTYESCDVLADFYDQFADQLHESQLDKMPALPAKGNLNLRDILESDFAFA
Description: (§1) In-vitro synthesis of mRNA cap analogs modified with vinylphosphonic acid: Firstly, a plasmid was linearized with NotI and digested at […] overnight. A DNA template was extracted. mRNAs were synthesized by in-vitro transcription using the vinylphosphonic acid-modified mRNA cap analogs of Examples 1-7 and compounds 10-13, 16, 17, 25, 31 and 34, and the cap analog of Comparative Example 1 as cap structures, respectively.
(§2) Note: During the experiment, the volume of the materials required for the system was calculated firstly, and then sample loading was performed. Firstly, sterile enzyme-free water was added into the system, and then 10× buffer, NTPs, and the cap analog were sequentially added. The mixture was uniformly mixed and then gently centrifuged, followed by addition of the nuclease inhibitor, the inorganic pyrophosphatase, the T7 RNA polymerase, and the linearized DNA template. The mixture was well mixed, then gently centrifuged, and incubated at 37° C. After 2 h, DNase I (1 U) was added, and the mixture was incubated at 37° C. for another 30 min to remove the DNA template. RNA purification was then performed (usually using the magnetic bead purification method). The purified mRNA was dissolved in sterile enzyme-free water, and then quantitative detection was performed by using Nanodrop One.

T7 RNA polymerase [2] = molecular target: T1, T7 RNA polymerase; assay: IVT capping rate of mRNA by LC-MS after RNase H cleavage; format: biochemical; conditions: LC-MS of mRNA transcribed with the cap analog
Description: as §1, §2
Liquid chromatography-mass spectrometry (LC-MS) was used to detect the IVT capping rates of mRNAs with different starting cap analogs. Firstly, a labeled (usually biotin-labeled) DNA probe matched with the starting base of mRNA as the transcript product was required to be designed, and streptavidin-labeled magnetic beads were washed, and then incubated with the synthesized DNA probe, mRNA and 10× RNase H reaction buffer with slowly mixing at room temperature for 30 min. 20 L of RNase H (5 U/μL) was then added, and the mixture was incubated at 37° C. for 3 h, with uniform mixing every half hour. After the incubation was completed, the magnetic beads were cleaned, and then 100 μL of 75% methanol heated to 80° C. was added to the cleaned magnetic beads. The mixture was heated to 80° C. on a heating plate, held for 3 min, and then placed on a magnetic rack. The supernatant was pipetted and dried at room temperature for 45 min to 10 Lby using an evaporation centrifuge. The sample was then resuspended in 50 μL of 100 μM EDTA/1% MeOH for LC-MS analysis to determine the capping of RNA in the transcription reaction. Due to the significant difference in molecular weight between capped and uncapped bases, the capping rates of mRNA transcription initiated with different cap analogs can be determined by using the difference in molecular weight.

[3] = molecular target: eukaryotic initiation factor (elF4E) (Homo sapiens, UniProt P06730); assay: Assay of binding ability to eukaryotic initiation factor (elF4E), Biacore T100; conditions: cap analog to elF4E protein; running buffer pH 6.0 or 7.4; read-out: Binding constant (converted)
Chain of eukaryotic initiation factor (elF4E) (P06730 whole entry): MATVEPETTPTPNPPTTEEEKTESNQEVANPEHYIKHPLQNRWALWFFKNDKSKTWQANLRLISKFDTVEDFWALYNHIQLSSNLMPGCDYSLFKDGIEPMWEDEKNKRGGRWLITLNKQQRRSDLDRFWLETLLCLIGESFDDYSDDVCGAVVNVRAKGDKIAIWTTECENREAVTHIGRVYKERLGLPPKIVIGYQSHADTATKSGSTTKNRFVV
Description: Test method: Firstly, experimental samples, including the cap analog samples of Examples 1-7, compounds 10-13, 16, 17, 25, 31 and 34, and Comparative Example 1, were diluted with a running buffer (50 mM phosphate, 100 mM sodium chloride, and 0.01% vol/vol Tween 20, pH 6.0 or 7.4). The sample injection time was […], the sample injection flow rate was 20 L/min, and the dissociation time was […]. The residual samples were eluted with a regeneration buffer (10 mM HEPES, 150 mM NaCl, and 0.010% vol/vol Tween 20, pH 7.4) for 30 s at a flow rate of 30 μL/min. Finally, through analysis by Biacore T100 evaluation software (version 2.0.2), sensorgrams were generated and the binding constants were calculated.

Compound | Yield (T7 RNA polymerase [1]) [µg] | Capping rate (T7 RNA polymerase [2]) [%] | Kd [3] [nM]
COCCOC1C(O)[C@H](n2c[n+](C)c3c(=O)[nH]c(N)nc32)O[C@@H]1/C=C/P(=O)(O)OP(=O)(O)OP(=O)(O)OC[C@H]1O[C@@H](n2cnc3c(N)ncnc32)C(OC)C1OP(=O)(O)OC[C@H]1O[C@@H](n2cnc3c(=O)[nH]c(N)nc32)C(O)C1O (stereo partly drawn) [Compound 10] | 124 | 96.4 | 218
COCC1C(O)[C@H](n2c[n+](C)c3c(=O)[nH]c(N)nc32)O[C@@H]1/C=C/P(=O)(O)OP(=O)(O)OP(=O)(O)OC[C@H]1O[C@@H](n2cnc3c(N)ncnc32)C(OC)C1OP(=O)(O)OC[C@H]1O[C@@H](n2cnc3c(=O)[nH]c(N)nc32)C(O)C1O (stereo partly drawn) [Compound 11] | 116 | 95.7 | 246
COC1C(OP(=O)(O)OC[C@H]2O[C@@H](n3cnc4c(=O)[nH]c(N)nc43)C(O)C2O)[C@@H](COP(=O)(O)OP(=O)(O)OP(=O)(O)/C=C/[C@H]2O[C@@H](n3c[n+](C)c4c(=O)[nH]c(N)nc43)C(O)C2CNC(C)=O)O[C@H]1n1cnc2c(N)ncnc21 (stereo partly drawn) [Compound 12] | 123 | 96.6 | 214
COC1C(OP(=O)(O)OC[C@H]2O[C@@H](n3cnc4c(=O)[nH]c(N)nc43)C(O)C2O)[C@@H](COP(=O)(O)OP(=O)(O)OP(=O)(O)/C=C/[C@H]2O[C@@H](n3c[n+](C)c4c(=O)[nH]c(N)nc43)CC2OC)O[C@H]1n1cnc2c(N)ncnc21 (stereo partly drawn) [Compound 13] | 112 | 95.4 | 265
COC1C(OP(=O)(O)OC[C@H]2O[C@@H](n3cnc4c(=O)[nH]c(N)nc43)C(O)C2O)[C@@H](COP(=O)(O)OP(=O)(O)OP(=O)(O)/C=C/[C@H]2O[C@@H](n3c[n+](C)c4c(=O)[nH]c(N)nc43)C(F)C2O)O[C@H]1n1cnc2c(N)ncnc21 (stereo partly drawn) [Compound 16] | 114 | 95.8 | 269
COC1C(OP(=O)(O)OC[C@H]2O[C@@H](n3ccc(=O)[nH]c3=O)C(O)C2O)[C@@H](COP(=O)(O)OP(=O)(O)OP(=O)(O)/C=C/[C@H]2O[C@@H](n3c[n+](C)c4c(=O)[nH]c(N)nc43)C(O)C2CNC(C)=O)O[C@H]1n1cnc2c(N)ncnc21 (stereo partly drawn) [Compound 17] | 122 | 96.2 | 222
COC1C(OP(=O)(O)OC[C@H]2O[C@@H](n3cnc4c(=O)[nH]c(N)nc43)C(O)C2O)[C@@H](/C=C\P(=O)(O)OP(=O)(O)OP(=O)(O)OC[C@H]2O[C@@H](n3c[n+](C)c4c(=O)[nH]c(N)nc43)C(O)C2CNC(C)=O)O[C@H]1n1cnc2c(N)ncnc21 (stereo partly drawn) [Compound 25] | 120 | 96.1 | 224
COC1C(OP(=O)(O)OC[C@H]2O[C@@H](n3cnc4c(=O)[nH]c(N)nc43)C(O)C2O)[C@@H](COP(=O)(O)OP(=O)(O)OP(=O)(O)/C=C/[C@H]2O[C@@H](n3c[n+](C)c4c(=O)[nH]c(N)nc43)C(O)C2CN(C)C(C)=O)O[C@H]1n1cnc2c(N)ncnc21 (stereo partly drawn) [Compound 31] | 115 | 95.7 | 239
CCCC(=O)NCC1C(O)[C@H](n2c[n+](C)c3c(=O)[nH]c(N)nc32)O[C@@H]1/C=C/P(=O)(O)OP(=O)(O)OP(=O)(O)OC[C@H]1O[C@@H](n2cnc3c(N)ncnc32)C(OC)C1OP(=O)(O)OC[C@H]1O[C@@H](n2cnc3c(=O)[nH]c(N)nc32)C(O)C1O (stereo partly drawn) [Compound 34] | 117 | 95.9 | 236
COC1C(OP(=O)(O)/C=C/[C@H]2O[C@@H](n3cnc4c(=O)[nH]c(N)nc43)C(O)C2O)[C@@H](COP(=O)(O)OP(=O)(O)OP(=O)(O)OC[C@H]2O[C@@H](n3c[n+](C)c4c(=O)[nH]c(N)nc43)C(O)C2O)O[C@H]1n1cnc2c(N)ncnc21 (stereo partly drawn) [Example 1] | 117 | 96.4 | 313
